Assay results from patent publication US20080020387A1, “BIOMARKER-OPTIMIZED ADHD TREATMENT” (priority 2006, published 2008).

What was measured:
[1] = test system: ADHD patients; settings: cited from earlier work
[2] = test system: children with ADHD; assay: Paired and single TMS of motor cortex measuring short interval cortical inhibition (SICI) before and after single drug doses; assay type: in vivo, human; settings: for Cortical Inhibition (SICI), post-medication: 90 minutes later
Method: Accordingly, sixteen children with ADHD, aged 8-17, are studied. Seven are homozygotes for the 10-repeat allele. Subjects are given single oral doses of 0.5 mg/kg methylphenidate and 1.0 mg/kg atomoxetine at visits separated by one week in a randomized, double-blind crossover design. Paired and single TMS are used to measure SICI before and after drug administration. Medication and genotype effects on SICI are estimated with repeated measures, mixed model regression. […] Some variation in ADHD medication-induced neurophysiological responses is explained by differences in the number of 3′-UTR, 10-repeat VNTR alleles in DAT1.
(§1) The study is a randomized, double-blind, crossover design comparing the effects of single doses of atomoxetine (ATX) and methylphenidate (MPH). Sixteen patients (age 8-17 years, mean age=12, ±3; 2 girls) participate. Nine have TS. Medication doses are clinically relevant: approximately 0.5 mg/kg for MPH and 1.0 mg/kg for ATX, administered as follows:
(§2) 1) subjects 20-29 kg→10 mg MPH, 20 mg ATX; 2) subjects 30-49 kg→20 mg MPH, 40 mg ATX; 3) subjects 50 kg and above→30 mg MPH, 60 mg ATX. Subjects and investigators are blind to the order of treatment throughout the study. The one-week interval between study visits is based on published pharmacokinetic data for single doses of ATX.
Neurophysiological studies are performed as described by Gilbert et al. ((2006) Neuropsychopharmacology 31 :442-449). TMS is performed by an investigator blind to genotype and clinical ratings.
Resting and active motor threshold (RMT and AMT) are measured using the method described in Mills and Nithi ((1997) Muscle and Nerve 20:570-576). SICI and intracortical facilitation (ICF) are measured with the Abductor Pollicis Brevis (APB) at rest, according to established paradigms (Kujirai et al. (1993) J. Physiol. 471:501-519; Ziemann et al. (1997) Electroencelphalogr. Clin. Neurophysiol. 105:430-437). SICI is measured with a conditioning pulse, 1% of stimulator output below AMT (˜70% of RMT), delivered 3 msec before a suprathreshold test pulse. ICF is measured with the conditioning pulse 10 msec before the test pulse. Twenty trials at each interval and 20 unconditioned test pulses are delivered in random order. SICI and ICF are expressed as the ratios of the mean motor evoked potential (MEP) amplitudes evoked by the pulse pairs divided by the mean amplitude of the MEP from the single test pulses.
After baseline TMS testing, subjects are administered study medication, and all measurements are repeated 90 minutes later, consistent with expected peak serum drug levels. Each TMS session takes approximately 30 minutes.
Primary analysis. The primary outcome of interest for this study is ADHD-medication, genotype, and medication*genotype effects on cortical inhibition (SICI). SICI measures are subjected to a mixed model, repeated measures analysis of variance using PROC MIXED. After assuring that baselines are not different and that there are no effects of order, we then model SICI=medication+DAT genotype+medication*genotype, combining baselines. Age and ADHD severity scores are also entered into the models as potential explanatory covariates. ICF is modeled in the same manner to determine if any effects are specific to cortical inhibition.
Secondary analyses. The secondary outcome of interest is to compare ATX and MPH effects on cortical inhibition (SICI). Two repeated measure regressions are performed: 1) the baselines-combined model above, and 2) a day-of-visit, baseline-adjusted model. Genotypes are entered to estimate genotype-specific effects of ATX vs. MPH. The Tic phenotype is entered to estimate TIC*medication and TIC*ATX vs. TIC*MPH effects. In addition, using Spearman, correlations of changes in SICI and ICF are assessed for ATX and MPH, and for SICI and ADHD severity.

[3] = test system: children with ADHD; assay: Reported side effects after single drug dose and TMS; assay type: in vivo, human
Method: as §1, §2

[4] = test system: children with ADHD; settings: single 10 mg dose, Moll et al. (2000); cited from earlier work
[5] = DAT1 10-repeat homozygotes, single oral dose
[6] = DAT 9, 10 genotype, single oral dose, baseline-adjusted estimate
[7] = DAT 10, 10 genotype, single oral dose, baseline-adjusted estimate
[8] = No Tics, single oral dose, baseline-adjusted estimate
[9] = Tics, single oral dose, baseline-adjusted estimate
[10] = all subjects, single oral dose ~1.0 mg/kg ATX or ~0.5 mg/kg MPH, adjusted for day-of-visit pre-treatment SICI, MEP amplitude ratio
[11] = heterozygotes (single 10-repeat DAT1 allele), single oral dose
[12] = individuals with ADHD and no TS, single oral dose
[13] = patients with ADHD and TS, single oral dose

## CNCC[C@@H](Oc1ccccc1C)c1ccccc1 [ATX, atomoxetine]
[1]; clinical evidence, Michelson et al. (2002)
  ADHD patients who do not respond to treatment (non-response rate): approximately 40%
[2]; [5]
  Effect of medication on SICI: slight decrease in SICI
[2]; [6]
  Cortical Inhibition (SICI), post-medication: 0.51
[2]; [7]
  Cortical Inhibition (SICI), post-medication: 0.66
[2]; [8]
  Cortical Inhibition (SICI), post-medication: 0.62
[2]; [9]
  Cortical Inhibition (SICI), post-medication: 0.56
[2]; [10]
  Cortical Inhibition (SICI), post-medication: 0.59
[2]; [11]
  Effect of medication on SICI: tend to increase (normalize) SICI
[2]; heterozygotes (single 10-repeat DAT1 allele), single oral dose, listed as Atomoxetine
  Effect of medication on SICI: increases (improves) SICI
[2]; [12]
  Effect of medication on SICI: decrease SICI
[2]; [13]
  Effect of medication on SICI: increase (normalize) SICI
[3]; both, human, in vivo
  Number of subjects reporting side effects: 4 subjects
  Side effect: headache (number of reports): 3
  Side effect: loss of appetite (number of reports): 2
  Side effect: nausea (number of reports): 2
  Side effect: numbness/tingling (number of reports): 1
  Side effect: scalp pain (number of reports): 1
  Side effect: stomach pain (number of reports): 1
[3]; in vivo
  Severity rating of side effects: mild

## COC(=O)C(c1ccccc1)C1CCCCN1 (stereo not shown) [MPH, methylphenidate]
[1]; individuals with the DAT1 10/10 genotype, e.g. Cheon et al. (2005)
  Clinical response by DAT1 genotype: poorer clinical response
[4]
  Effect on SICI: significantly increase (normalize) SICI
[2]; [5]
  Effect of medication on SICI: slight decrease in SICI
[2]; [6]
  Cortical Inhibition (SICI), post-medication: 0.47
[2]; [7]
  Cortical Inhibition (SICI), post-medication: 0.61
[2]; [8]
  Cortical Inhibition (SICI), post-medication: 0.64
[2]; [9]
  Cortical Inhibition (SICI), post-medication: 0.44
[2]; [10]
  Cortical Inhibition (SICI), post-medication: 0.54
[2]; [11]
  Effect of medication on SICI: tend to increase (normalize) SICI
[2]; [12]
  Effect of medication on SICI: decrease SICI
[2]; [13]
  Effect of medication on SICI: increase (normalize) SICI
[3]; after drug/TMS
  Severity rating of side effects: mild, except for one child who reports a moderate headache
  Side effect: abdominal pain (number of reports): 1
  Side effect: arm/other pain (number of reports): 2
  Side effect: headache (number of reports): 3
  Side effect: hearing change (number of reports): 1
  Side effect: numbness/tingling (number of reports): 1
[3]; of 16 subjects, after drug/TMS
  Number of subjects reporting side effects: 6 subjects
